From patent publication US6638938B1, “Method for preventing tissue injury from hypoxia” (Cell Therapeutics, Inc., priority 1993, dated 2003)

Tests used:
isolated rat kidneys = test: ischemic isolated rat kidney reperfused with human neutrophils; conditions: Ischemia + neutrophils + Lisofylline
Description: This example illustrates an in vivo kidney model of hypoxic tissue injury using Lisofylline. Isolated rat kidneys were rendered ischemic and reperfused with human neutrophils (prepared as in example 4 above) according to the procedure in Linas et al;, Am. J. Physiol. 24:728-735, 1988. Lisofylline decreased injury in this ischemic isolated rat kidney model according to the data presented in Table 8 below wherein GFR refers to glomerular filtration rate and TNa refers to tubular sodium reabsorption.

IFN-γ = IFN-γ sandwich ELISA of BAL supernatants and plasma; format: in vivo, Balb/C mice
Description: This example illustrates a study of Lisofylline in a murine hemorrhage and resuscitation model. Male Balb/C mice, 8-12 weeks of age, were obtained from Harlan-Sprague Dawley (Indianapolis, Ind.). The animals were kept on a 12 hour light/dark cycle with free access to food and water. With this model, 30% of the calculated blood volume (approximately 0.55 ml for a 20 gram mouse) was withdrawn from a methoxyflurane anesthetized mouse by cardiac puncture over a 60-second period. The blood was collected into a heparinized syringe (5 units heparin), kept at 37° C. for one hour, then reinfused into the mouse through a retroorbital plexus injection. Using this method, one is able to resuscitate all hemorrhaged mice without complication. The total period of methoxyflurane anesthesia is less than 2 minutes in all cases. The mortality rate with this hemorrhage protocol is approximately 12%, with all deaths occurring over the 24 hours post hemorrhage, and most deaths occurring within the one hour post hemorrhage.
Mice were treated with 100 mg/kg Lisofylline in 0.2 ml PBS and given initially i.v., by retroorbital injection, then i.p. every 8 hours for a total of 9 doses. In hemorrhaged mice, the Lisofylline in PBS was added to the shed blood, and then given retroorbitally with the blood during the resuscitation phase. In hemorrhaged Balb/C mice (n=3), sacrificed by exsanguination 5 minutes after receiving Lisofylline with the blood used for resuscitation, serum levels of Lisofylline were 44±6 μg/ml.
Three days following hemorrhage and resuscitation or the initiation of treatment with Lisofylline therapy in normal treated animals, mice were anesthetized with methoxyflurane and sacrificed by exsanguination through cardiac puncture into a heparinized (5 U) syringe. Normal mice, not subjected to hemorrhage/resuscitation or to treatment with Lisofylline, were included. Bronchoalveolar lavage (BAL) specimens, using 1.0 ml PBS injected and aspirated three times into the trachea and lungs, were obtained. Cells contained in the BAL were collected by centrifugation of BAL specimens. […] As determined by cytology, there was less than 3% contamination of alveolar macrophages with lymphocytes, neutrophils, or other mononuclear cell populations when BAL specimens are collected in normal Balb/C mice, but approximately 11±2% of isolated cells are neutrophils in mice subjected 3 days previously to 30% blood volume hemorrhage with resuscitation one hour later. […]
TNFα and IFN-γconcentrations in BAL supernatants and plasma were determined with sandwich ELISA assays using the monoclonal antibody pairs (i.e., unbiotinylated or biotinylated) MP6-XT3 for TNFα and XMG1.2 for IFN-γ(Pharmingen San Diego, Calif.). […]

human neutrophils = test: neutrophil chemotaxis in Boyden chambers to zymosan activated serum; format: cell-based
Description: Human recombinant interleukin-1α (IL-1) was obtained from Hoffmann-LaRoche, Inc. (Nutley, N.J.), frozen inaliquots and thawed daily for use. Ketamine hydrochloride was obtained from Parke-Davis (Morris Plains, N.J.), xylazine from Haver (New York, N.J.), ^125I labeled bovine serum albumin (BSA) from ICN Radiochemicals (Irvine, Calif.), and heparin sodium from Elkins-Sinn, Inc. (Cherry Hill, N.J.). All other reagents were purchased from Sigma Chemical Co. (St. Louis, Mo.). Neutrophils were purified from human blood by well described methods. Venous blood was anticoagulated with heparin and the cellular elements were separated from platelet-rich plasma by centrifugation. Cell pellets were resuspended in platelet-poor plasma and diluted 1:4 with 6% dextran (Pharmacia Fine Chemicals, Piscataway, N.J.) in saline. Red cells were separated from leukocytes by sedimentation. Leukocyte-rich supernatants were then aspirated, underlain with Ficoll-Hypaque (Pharmacia Fine Chemicals), and centrifuged at 275×g to separate neutrophils and monocytes. […]
Each sample was run in triplicate. Unstimulated locomotion was measured using control neutrophils in Hank's Balanced Salt Solution (HBSS) in the top chamber and HBSS in the bottom chamber. Stimulated locomotion was measured using twice-washed neutrophils in HBSS in the top chamber with and without Lisofylline and zymosan-activated serum (ZAS) in the bottom chamber. […] Indices of unstimulated or stimulated locomotion were expressed as the number of neutrophils migrating through the filter in 5 random, high-power objective fields (HPF).
Neutrophil chemotactic activity was determined by Boyden chamber assay and quantitated as the number of migrating PMN/5HPF using zymosan-activated serum (ZAS) as the chemoattractant (Repine et al., J. Reticuloendo. Soc. 24:217, 1978). Neutrophil adherence was assessed by quantitating the percentage of neutrophils adhering to nylon fibers following addition of phorbol myristate acetate (PMA 10-^6M, Sigma) (Rasp et al., J. Reticuloendo. Soc. 25:101, 1979). […]

[1] = hemorrhaged/resuscitated mice treated for 72 hours
[2] = normal, unhemorrhaged mice treated

C[C@@H](O)CCCCn1c(=O)c2c(ncn2C)n(C)c1=O [Lisofylline, 1-R-(5-hydroxyhexyl)-3,7-dimethylxanthine]
TNa (tubular sodium reabsorption) (isolated rat kidneys; control 90%, ischemia + neutrophils 40%): 78% (n = 6)
GFR (glomerular filtration rate) (isolated rat kidneys; control 250, ischemia + neutrophils 113): 202 (n = 6)
IFN-γ levels in BAL supernatants (IFN-γ; [1]): 2 ± 2 pg/mL
IFN-γ levels in plasma (IFN-γ; [1]): 173 ± 120 pg/mL
IFN-γ content of BAL supernatants (IFN-γ; [2]): 16 ± 16 pg/mL
IFN-γ in plasma (IFN-γ; [2]): 66 ± 48 pg/mL
Neutrophil Chemotaxis in Boyden Chambers in vitro (human neutrophils; Neutrophils + ZAS + Lisofylline 1 μM): 15.0 (2)δ PMN/5HPF
Neutrophil Chemotaxis in Boyden Chambers in vitro (human neutrophils; Neutrophils + ZAS + Lisofylline 50 μM): 11.1 (2)δ PMN/5HPF
stimulated human neutrophil chemotaxis (human neutrophils; ZAS as chemoattractant, in vitro): reduced
